Measured values published in ChEMBL document CHEMBL5465560, “Selectivity Literature for EUbOPEN Chemogenomic Library” (2024).
pIC50: −log10 of the molar value.

Assays:
[1] = molecular target: Mitogen-activated protein kinase 8 (Homo sapiens, UniProt P45983); experiment: Selectivity interaction (Enzymatic assay) EUB0001199aCl MAPK8
[2] = molecular target: T1, Serine/threonine-protein kinase Nek2 (Homo sapiens) (UniProt P51955); experiment: Selectivity interaction (Kinase panel (literature)) EUB0001199aCl NEK2; settings: at 1 µM
T1 sequence (whole entry): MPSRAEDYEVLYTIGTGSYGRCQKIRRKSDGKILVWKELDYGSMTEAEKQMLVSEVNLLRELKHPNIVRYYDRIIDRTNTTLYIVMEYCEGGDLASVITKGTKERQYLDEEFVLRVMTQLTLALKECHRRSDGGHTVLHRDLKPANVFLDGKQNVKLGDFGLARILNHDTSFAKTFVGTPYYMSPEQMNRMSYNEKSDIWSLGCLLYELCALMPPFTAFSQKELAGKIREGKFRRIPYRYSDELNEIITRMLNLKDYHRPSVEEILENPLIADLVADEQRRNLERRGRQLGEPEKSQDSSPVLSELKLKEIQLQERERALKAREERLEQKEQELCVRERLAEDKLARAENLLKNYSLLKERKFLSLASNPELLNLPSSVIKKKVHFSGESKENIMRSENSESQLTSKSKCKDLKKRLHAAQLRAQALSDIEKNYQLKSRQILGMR

[3] = molecular target: T2, Serine/threonine-protein kinase D1 (Homo sapiens) (UniProt Q15139); experiment: Selectivity interaction (Kinase panel (Invitrogen)) EUB0000639a PRKD1; settings: at 200 nM
T2 sequence (whole entry): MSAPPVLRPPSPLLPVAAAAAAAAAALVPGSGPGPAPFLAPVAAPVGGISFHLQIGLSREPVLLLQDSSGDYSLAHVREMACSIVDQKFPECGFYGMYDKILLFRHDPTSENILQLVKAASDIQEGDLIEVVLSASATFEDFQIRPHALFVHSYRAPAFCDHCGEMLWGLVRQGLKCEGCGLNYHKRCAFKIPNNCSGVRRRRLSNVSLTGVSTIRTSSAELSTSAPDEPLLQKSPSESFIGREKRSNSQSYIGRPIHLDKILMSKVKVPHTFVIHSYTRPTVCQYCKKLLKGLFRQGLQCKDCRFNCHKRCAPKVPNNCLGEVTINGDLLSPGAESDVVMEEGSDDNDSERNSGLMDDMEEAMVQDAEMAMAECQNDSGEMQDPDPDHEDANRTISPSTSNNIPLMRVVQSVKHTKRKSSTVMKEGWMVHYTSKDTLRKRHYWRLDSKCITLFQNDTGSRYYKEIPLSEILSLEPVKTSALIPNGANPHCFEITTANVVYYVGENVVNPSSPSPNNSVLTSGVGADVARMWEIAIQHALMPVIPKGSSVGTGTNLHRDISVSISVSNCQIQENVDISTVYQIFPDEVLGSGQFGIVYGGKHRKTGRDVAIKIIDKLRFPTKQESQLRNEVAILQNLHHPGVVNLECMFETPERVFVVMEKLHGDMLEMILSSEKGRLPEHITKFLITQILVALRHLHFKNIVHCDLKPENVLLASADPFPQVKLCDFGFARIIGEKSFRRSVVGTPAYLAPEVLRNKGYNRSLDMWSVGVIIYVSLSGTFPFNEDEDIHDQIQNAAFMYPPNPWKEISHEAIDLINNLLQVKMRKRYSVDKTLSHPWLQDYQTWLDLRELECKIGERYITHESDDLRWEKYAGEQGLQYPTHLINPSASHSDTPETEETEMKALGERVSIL

[4] = molecular target: Serine/threonine-protein kinase 16 (Homo sapiens, UniProt O75716); experiment: Selectivity interaction (ActivX KiNativ screen (kinase selectivity in THP-1 cell lysates)) EUB0000639a STK16; type: subcellular; settings: lysate
Chain of Serine/threonine-protein kinase 16 (O75716 whole entry): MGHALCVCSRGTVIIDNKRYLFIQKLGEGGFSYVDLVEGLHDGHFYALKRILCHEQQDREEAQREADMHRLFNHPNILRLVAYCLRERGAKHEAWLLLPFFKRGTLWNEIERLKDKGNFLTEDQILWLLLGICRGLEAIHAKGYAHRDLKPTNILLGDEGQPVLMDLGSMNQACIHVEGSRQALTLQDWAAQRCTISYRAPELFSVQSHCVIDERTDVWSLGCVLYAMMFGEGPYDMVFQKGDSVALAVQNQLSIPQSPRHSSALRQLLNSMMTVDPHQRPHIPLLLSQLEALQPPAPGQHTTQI

[5] = molecular target: T3, Serine/threonine-protein kinase Sgk1 (Homo sapiens) (UniProt O00141); experiment: Selectivity interaction (Ambit KINOMEscan and KiNATiv profiling in Jurkat cells) EUB0000090b SGK1; type: cell-based; settings: at 1 µM
T3 sequence (whole entry): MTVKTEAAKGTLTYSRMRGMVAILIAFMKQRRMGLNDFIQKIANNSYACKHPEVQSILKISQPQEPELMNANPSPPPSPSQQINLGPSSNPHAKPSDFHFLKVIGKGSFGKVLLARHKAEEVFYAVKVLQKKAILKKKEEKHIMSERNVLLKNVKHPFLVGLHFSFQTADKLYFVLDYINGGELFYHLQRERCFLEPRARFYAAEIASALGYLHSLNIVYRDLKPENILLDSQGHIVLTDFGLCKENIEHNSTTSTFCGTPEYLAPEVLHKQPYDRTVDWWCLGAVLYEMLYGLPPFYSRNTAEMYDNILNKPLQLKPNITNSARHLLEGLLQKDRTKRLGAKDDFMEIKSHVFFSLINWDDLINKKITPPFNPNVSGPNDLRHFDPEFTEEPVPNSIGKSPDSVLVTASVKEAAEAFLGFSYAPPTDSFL

[6] = system: Epidermal growth factor receptor (Homo sapiens), P00533 [G719S]; settings: at 10 µM
Chain of Epidermal growth factor receptor (Homo sapiens), P00533 [G719S] (P00533 whole entry G719S): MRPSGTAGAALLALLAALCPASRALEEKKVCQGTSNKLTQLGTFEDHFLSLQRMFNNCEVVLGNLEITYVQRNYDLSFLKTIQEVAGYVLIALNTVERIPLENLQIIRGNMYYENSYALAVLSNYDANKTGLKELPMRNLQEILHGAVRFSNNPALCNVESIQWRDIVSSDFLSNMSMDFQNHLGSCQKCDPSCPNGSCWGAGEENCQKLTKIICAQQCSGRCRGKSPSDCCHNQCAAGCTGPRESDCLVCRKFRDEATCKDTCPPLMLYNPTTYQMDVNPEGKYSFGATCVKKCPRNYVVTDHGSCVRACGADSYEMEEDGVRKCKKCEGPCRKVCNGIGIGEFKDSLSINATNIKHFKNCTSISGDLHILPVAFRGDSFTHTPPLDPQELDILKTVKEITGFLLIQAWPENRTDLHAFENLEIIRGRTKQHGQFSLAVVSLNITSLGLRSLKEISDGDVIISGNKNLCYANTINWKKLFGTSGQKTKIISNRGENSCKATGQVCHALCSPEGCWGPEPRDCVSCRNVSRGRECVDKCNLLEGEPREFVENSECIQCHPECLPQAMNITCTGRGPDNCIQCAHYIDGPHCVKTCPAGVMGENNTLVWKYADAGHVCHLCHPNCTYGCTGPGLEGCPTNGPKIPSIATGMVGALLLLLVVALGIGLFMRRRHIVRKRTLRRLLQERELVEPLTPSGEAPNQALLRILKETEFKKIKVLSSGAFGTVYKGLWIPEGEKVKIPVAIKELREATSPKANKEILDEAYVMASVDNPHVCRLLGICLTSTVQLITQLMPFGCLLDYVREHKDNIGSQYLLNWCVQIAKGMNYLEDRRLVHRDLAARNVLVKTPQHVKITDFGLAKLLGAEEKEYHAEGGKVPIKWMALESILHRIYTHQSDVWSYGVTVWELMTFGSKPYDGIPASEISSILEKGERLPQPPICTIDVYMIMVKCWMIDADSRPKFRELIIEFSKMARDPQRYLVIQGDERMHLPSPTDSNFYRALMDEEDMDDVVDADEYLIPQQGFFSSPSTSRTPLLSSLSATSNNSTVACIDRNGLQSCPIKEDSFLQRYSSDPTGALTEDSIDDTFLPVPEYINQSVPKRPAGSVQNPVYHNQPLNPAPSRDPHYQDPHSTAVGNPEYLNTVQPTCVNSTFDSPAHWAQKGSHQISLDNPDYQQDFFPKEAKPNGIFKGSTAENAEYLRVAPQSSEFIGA

Chain of Mitogen-activated protein kinase 8 (P45983 whole entry): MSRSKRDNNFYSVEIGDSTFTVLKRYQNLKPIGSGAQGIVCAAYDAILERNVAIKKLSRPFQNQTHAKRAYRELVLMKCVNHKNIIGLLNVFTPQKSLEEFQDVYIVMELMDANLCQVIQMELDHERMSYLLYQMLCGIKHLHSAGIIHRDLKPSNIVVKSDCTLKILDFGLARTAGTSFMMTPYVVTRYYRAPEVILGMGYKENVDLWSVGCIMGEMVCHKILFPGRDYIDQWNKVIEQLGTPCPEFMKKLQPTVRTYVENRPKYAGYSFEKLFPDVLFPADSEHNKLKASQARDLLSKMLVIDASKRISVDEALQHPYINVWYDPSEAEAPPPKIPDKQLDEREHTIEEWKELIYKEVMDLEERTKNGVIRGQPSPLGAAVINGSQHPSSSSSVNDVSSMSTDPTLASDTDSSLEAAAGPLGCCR

Question: With `CN1Cc2nccc(-c3cn(C)nc3-c3ccc(F)cc3)c2C1=O` as the compound, how does the pIC50 [1] read?
Answer: 5.99

Question: And the % of inhibition [2]?
Answer: 4%

Question: What does the source list for `CC[C@@H]1[C@H](F)C(=O)N[C@@H]1COc1nccc2cc(C(N)=O)c(OC)cc12` [ZIMLOVISERTIB]?
Answer: % of inhibition [3]: 5.76%; % of inhibition ([4]; at 0.01 µM): 10.7%; % of inhibition ([4]; at 0.04 µM): 27.8%; % of inhibition ([4]; at 0.2 µM): 22.2%; % of inhibition ([4]; at 1 µM): 67.2%; % of inhibition ([4]; at 5 µM): > 94%

Question: For `CN(C)C/C=C/C(=O)Nc1ccc(C(=O)N2CCCC(Nc3ncc(Cl)c(-c4c[nH]c5ccccc45)n3)C2)cc1` (stereo not given), which % of control [5] is on record?
Answer: 99%

Question: With `Cc1cc([C@@H](C)Nc2ccccc2C(=O)O)c2nc(N3CCOCC3)cc(=O)n2c1` [AZD-6482] as the compound, how does the % of control [6] read?
Answer: 98%
